According to PubChem BioAssay AID2060897 (Molecular Pharmacology Branch, DTP, NCI, 2025):

Test system: 966289-007-R4-J1-PDC complex spheroid viability
Assay: Anticancer human tumor 966289-007-R4-J1-PDC patient-derived pancreatic adenocarcinoma cell line growth inhibition [RAS]
Settings: for IC50: curve of first compound; for viability, T/C: stronger effect = lower value
Method in brief: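 Multi-cell-type spheroids: tumor cells plus HUVEC endothelial cells and mesenchymal stem cells. RAS-pathway inhibitors were combined with targeted agents, each dosed in half-log steps down from clinical Cmax, or from 10 microM when Cmax was unknown.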

[1] = second compound 0.0316 µM, first compound 0.0316 µM
[2] = second compound 0.0316 µM, first compound 0.1 µM
[3] = second compound 0.0316 µM, first compound 0.316 µM
[4] = second compound 0.0316 µM, first compound 1 µM
[5] = second compound 0.0316 µM, first compound 3.16 µM
[6] = second compound 0.0316 µM, first compound 10 µM
[7] = second compound 0.1 µM, first compound 0.0316 µM
[8] = second compound 0.1 µM, first compound 0.1 µM
[9] = second compound 0.1 µM, first compound 0.316 µM
[10] = second compound 0.1 µM, first compound 1 µM
[11] = second compound 0.1 µM, first compound 3.16 µM
[12] = second compound 0.1 µM, first compound 10 µM
[13] = second compound 0.316 µM, first compound 0.0316 µM
[14] = second compound 0.316 µM, first compound 0.1 µM
[15] = second compound 0.316 µM, first compound 0.316 µM
[16] = second compound 0.316 µM, first compound 1 µM
[17] = second compound 0.316 µM, first compound 3.16 µM
[18] = second compound 0.316 µM, first compound 10 µM
[19] = second compound 1 µM, first compound 0.0316 µM
[20] = second compound 1 µM, first compound 0.1 µM
[21] = second compound 1 µM, first compound 0.316 µM
[22] = second compound 1 µM, first compound 1 µM
[23] = second compound 1 µM, first compound 3.16 µM
[24] = second compound 1 µM, first compound 10 µM
[25] = second compound 3.16 µM, first compound 0.0316 µM
[26] = second compound 3.16 µM, first compound 0.1 µM
[27] = second compound 3.16 µM, first compound 0.316 µM
[28] = second compound 3.16 µM, first compound 1 µM
[29] = second compound 3.16 µM, first compound 3.16 µM
[30] = second compound 3.16 µM, first compound 10 µM
[31] = second compound 10 µM, first compound 0.0316 µM
[32] = second compound 10 µM, first compound 0.1 µM
[33] = second compound 10 µM, first compound 0.316 µM
[34] = second compound 10 µM, first compound 1 µM
[35] = second compound 10 µM, first compound 3.16 µM
[36] = second compound 10 µM, first compound 10 µM
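Also: spheroids exposed to agents for one week before readout.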
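For viability, T/C in this document: percent viability relative to DMSO vehicle control wells as 100%.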

## Cc1nc(N2CCC3(CC2)COC(C)C3N)c(CO)nc1Sc1ccnc(N)c1Cl (centres undefined) + C#Cc1c(F)ccc2cc(O)cc(-c3ncc4c(N5CC6CCC(C5)N6)nc(OCC56CCCN5CC(F)C6)nc4c3F)c12
Second compound 0.0316 µM
  IC50: > 10 µM
Second compound 0.1 µM
  IC50: > 10 µM
Second compound 0.316 µM
  IC50: > 10 µM
Second compound 1 µM
  IC50: > 10 µM
Second compound 3.16 µM
  IC50: > 10 µM
Second compound 10 µM
  IC50: > 10 µM
[1]
  viability, T/C: 107%
[2]
  viability, T/C: 92.5%
[3]
  viability, T/C: 111%
[4]
  viability, T/C: 80.5%
[5]
  viability, T/C: 102%
[6]
  viability, T/C: 92%
[7]
  viability, T/C: 107%
[8]
  viability, T/C: 94.7%
[9]
  viability, T/C: 103%
[10]
  viability, T/C: 92.6%
[11]
  viability, T/C: 95.1%
[12]
  viability, T/C: 90.9%
[13]
  viability, T/C: 91%
[14]
  viability, T/C: 114%
[15]
  viability, T/C: 115%
[16]
  viability, T/C: 115%
[17]
  viability, T/C: 93.5%
[18]
  viability, T/C: 91.5%
[19]
  viability, T/C: 93.1%
[20]
  viability, T/C: 112%
[21]
  viability, T/C: 113%
[22]
  viability, T/C: 107%
[23]
  viability, T/C: 97.8%
[24]
  viability, T/C: 87.3%
[25]
  viability, T/C: 104%
[26]
  viability, T/C: 104%
[27]
  viability, T/C: 113%
[28]
  viability, T/C: 88.8%
[29]
  viability, T/C: 88.2%
[30]
  viability, T/C: 98%
[31]
  viability, T/C: 91.8%
[32]
  viability, T/C: 97.1%
[33]
  viability, T/C: 100%
[34]
  viability, T/C: 89.8%
[35]
  viability, T/C: 95.2%
[36]
  viability, T/C: 85.5%

## NC1c2ccccc2OC12CCN(c1cnc3c(N4CCCc5ncccc54)n[nH]c3n1)CC2 (centres undefined) + C#Cc1c(F)ccc2cc(O)cc(-c3ncc4c(N5CC6CCC(C5)N6)nc(OCC56CCCN5CC(F)C6)nc4c3F)c12
Second compound 0.0316 µM
  IC50: > 10 µM
Second compound 0.1 µM
  IC50: > 10 µM
Second compound 0.316 µM
  IC50: > 10 µM
Second compound 1 µM
  IC50: > 10 µM
Second compound 3.16 µM
  IC50: > 10 µM
Second compound 10 µM
  IC50: > 10 µM
[1]
  viability, T/C: 118%
[2]
  viability, T/C: 88.8%
[3]
  viability, T/C: 98.4%
[4]
  viability, T/C: 97.3%
[5]
  viability, T/C: 108%
[6]
  viability, T/C: 92.7%
[7]
  viability, T/C: 106%
[8]
  viability, T/C: 98.1%
[9]
  viability, T/C: 95.5%
[10]
  viability, T/C: 108%
[11]
  viability, T/C: 99.7%
[12]
  viability, T/C: 109%
[13]
  viability, T/C: 100%
[14]
  viability, T/C: 105%
[15]
  viability, T/C: 95.5%
[16]
  viability, T/C: 113%
[17]
  viability, T/C: 108%
[18]
  viability, T/C: 113%
[19]
  viability, T/C: 100%
[20]
  viability, T/C: 103%
[21]
  viability, T/C: 118%
[22]
  viability, T/C: 109%
[23]
  viability, T/C: 95.8%
[24]
  viability, T/C: 118%
[25]
  viability, T/C: 101%
[26]
  viability, T/C: 92.2%
[27]
  viability, T/C: 109%
[28]
  viability, T/C: 101%
[29]
  viability, T/C: 91.1%
[30]
  viability, T/C: 99.7%
[31]
  viability, T/C: 105%
[32]
  viability, T/C: 90.1%
[33]
  viability, T/C: 120%
[34]
  viability, T/C: 98.8%
[35]
  viability, T/C: 108%
[36]
  viability, T/C: 115%
